In PubChem BioAssay (NCI) one finds TGI data, which are given here for eight molecules.

Common to all, as to experiment: DTP human tumour cell line panel, 48 h
Test [1] has as its system OVCAR-5 ovarian.
Test [2] deals with UACC-257 melanoma.
For test [3], the system named is RXF 393 renal.
Test [4] deals with TK-10 renal.
Test [5] has as its system U251 CNS.
For test [6], the system named is HOP-62 NSCLC.
Test [7] relates to SK-MEL-28 melanoma.
Test [8] relates to LOX IMVI melanoma.
The test system of test [9] is HCT-116 colon.
Test [10] relates to SK-MEL-5 melanoma.
Test [11] deals with RPMI-8226 leukemia.
In test [12] the test system is OVCAR-3 ovarian.
The test system of test [13] is SF-539 CNS.
In test [14] the test system is HOP-92 NSCLC.
In test [15] the test system is M14 melanoma.
For test [16], the system named is MALME-3M melanoma.

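Tested at 5 concentrations; 48 h exposure; 96-well plates; endpoints linearly interpolated, else capped at highest concentration. TGI: total growth inhibition.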

For `C/C(CC(=O)Nc1cc(Cl)c(Cl)cc1Cl)=N\NC(N)=O`, the TGI in test [1], in [2], in test [3], in test [4], in [5] and in [6] was more than 100 µM in each case. Moreover, the concentration for total growth inhibition (TGI) in [7], in test [8], in test [9], in test [10], in [11] and in test [12] was more than 100 µM in each case. Besides, the TGI in [13], in test [14], in test [15] and in test [16] was more than 100 µM each time.

For `C/C(CC(=O)Nc1ccc(C)cc1C)=N/N=C(N)N`, the concentration for total growth inhibition (TGI) in test [1], in [2], in [3], in test [4], in [5] and in [6] was more than 100 µM throughout. The total growth inhibition concentration (TGI) in test [7], in [8], in test [9], in test [10], in [11] and in [12] was more than 100 µM throughout. Besides, the TGI in test [13], in [14], in [15] and in [16] was more than 100 µM each time.

As for `N#Cc1cc([N+](=O)[O-])ccc1NC(=O)C(=O)Nc1n[nH]c(N)n1`, the TGI in [1], in test [2], in [3], in test [4], in test [5] and in test [6] was more than 100 µM throughout. Moreover, the TGI in test [7], in test [8], in test [9], in test [10], in [11] and in test [12] was more than 100 µM each time. In addition, the concentration for total growth inhibition (TGI) in [13], in test [14], in [15] and in test [16] was more than 100 µM in each case.

In the case of `CC(C)C(=O)NC(=S)Nc1ccc([N+](=O)[O-])cc1C#N`, the TGI in test [1], in test [2], in test [3], in test [4], in [5] and in test [6] was more than 100 µM throughout. In addition, the TGI in test [7], in [8], in [9], in test [10], in test [11] and in [12] was more than 100 µM throughout. The concentration for total growth inhibition (TGI) in [13], in test [14], in test [15] and in test [16] was more than 100 µM throughout.

With `CCOC(=O)C1=C(OC(OCC)C(CC)[Se]c2ccccc2)CCCC1` (stereo not drawn), the TGI (commonly the concentration giving total growth inhibition) in test [1] was 67.7 µM; in test [2], more than 100 µM; in test [3], 37.7 µM; in [4], more than 100 µM; in test [5], 31 µM; in [6] it was more than 100 µM. Besides, the TGI in test [7] was more than 100 µM; in test [8], 18.7 µM; in test [9], 45 µM; in test [10], 35.8 µM; in [11], 39.3 µM; in [12] it was 65.7 µM. Also, the TGI in test [13] stood at 35.4 µM; in test [14], 46 µM; in test [15] it was 34.2 µM; in [16], 97.7 µM.

Consider `O=C(O)C(CO)NC(=O)n1c2ccccc2c2ccccc21` (stereo not drawn), for which the TGI in [2], in [3], in test [4], in [6], in [7] and in test [8] was more than 100 µM each time. Further, the TGI in test [9], in test [10], in test [11], in test [12], in test [13] and in [14] was more than 100 µM in each case. The molecule further yielded a TGI in test [16] of more than 100 µM.

For `CC(C)(C)C1CCC2(CC1)c1[nH]c3ccccc3c1C1(CCC(C(C)(C)C)CC1)c1[nH]c3ccccc3c12` (stereo not drawn), the TGI in test [1], in test [2], in test [3], in [4], in [5] and in test [6] was more than 100 µM throughout. In addition, the TGI in [7], in test [8], in [9], in [10], in test [11] and in test [13] was more than 100 µM in each case. Besides, the TGI in test [14], in test [15] and in [16] was more than 100 µM in each case.

Turning to `O=C1NC2OC(CO)C(O)C(O1)C2O` (stereo not drawn), the TGI in [1], in test [2], in [3], in test [4], in test [5] and in test [6] was more than 100 µM throughout. For the same molecule, the TGI in test [7], in test [8], in test [10], in test [11], in [12] and in test [13] was more than 100 µM in each case. The TGI in test [14], in [15] and in test [16] was more than 100 µM throughout.
